“And” between values parts separate entries of the source, which are not always exact repeats. Equal entries are not always repeated.
T1: Peroxisomal sarcosine oxidase (Homo sapiens) (UniProt Q9P0Z9)
T1 sequence (whole entry): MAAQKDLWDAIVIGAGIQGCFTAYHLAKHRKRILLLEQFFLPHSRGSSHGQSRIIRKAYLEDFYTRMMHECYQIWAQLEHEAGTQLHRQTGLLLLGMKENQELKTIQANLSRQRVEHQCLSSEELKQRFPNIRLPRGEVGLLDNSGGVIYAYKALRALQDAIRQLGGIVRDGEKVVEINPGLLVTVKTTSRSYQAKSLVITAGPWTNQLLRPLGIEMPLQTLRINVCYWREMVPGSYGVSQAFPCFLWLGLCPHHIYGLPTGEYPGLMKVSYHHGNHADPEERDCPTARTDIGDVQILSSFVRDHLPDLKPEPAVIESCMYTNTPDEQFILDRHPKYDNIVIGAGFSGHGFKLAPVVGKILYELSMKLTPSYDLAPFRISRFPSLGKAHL

T2: Peroxisomal sarcosine oxidase (Homo sapiens, UniProt Q9P0Z9)
T2 sequence (Q9P0Z9 whole entry): T1 sequence (whole entry)

B1: Peroxisomal sarcosine oxidase (Homo sapiens), Q9P0Z9 (protein)
chain: T1 sequence (whole entry)

What was measured:
[1] = target: T1, Peroxisomal sarcosine oxidase (Homo sapiens); assay: Kinetic parameter was evaluated for L-pipecolate oxidase; settings: Cercopithecidae
[2] = target: T2, Peroxisomal sarcosine oxidase; assay: Time and concentration dependent inhibition of L-pipecolate oxidase was determined by the compound; parameters: species or system Cercopithecidae
[3] = target: T1, Peroxisomal sarcosine oxidase (Homo sapiens); assay: Kinetic parameter was evaluated for L-pipecolate oxidase in Frozen Rhesus monkey liver ith L-PA as substrate; format: tissue-based; settings: Cercopithecidae, target entry is the homologue from another species
[4] = Partition ratio was calculated from the ratio of kcat/kinact
[5] = target: T1, Peroxisomal sarcosine oxidase (Homo sapiens); assay: (§1) Kinetic parameter was evaluated for L-pipecolate oxidase using the peroxidase-coupled assay; settings: Cercopithecidae
[6] = target: T1, Peroxisomal sarcosine oxidase (Homo sapiens); assay: Kinetic parameter was evaluated for L-pipecolate oxidase was expressed as K observed; settings: Cercopithecidae
[7] = substrate: O=C(O)[C@@H]1CCSCN1; assay: as §1; settings: Cercopithecidae

Molecule	K inact [1] [min⁻¹]	Ki [2] [mM]	k cat [3] [s⁻¹]	Ratio [4]	k cat [5] [s⁻¹]	k obs [6]	Km [7] [µM]
O=C(O)[C@@H]1CCSCN1	0.06	36	0.13	85	0.085	4.01e-05 s⁻¹ and 4.26e-05 s⁻¹	–
B1	–	–	–	–	–	–	940

Reference: ChEMBL document CHEMBL1129844, “Mechanism-based inactivation of l-pipecolate oxidase by a sulfur-containing substrate analog, 5-thia-l-pipecolic acid” (Bioorg Med Chem Lett, 1997)
